pIC50: −log10 of the molar value. Blank lines part the entries; values can stand above or below the compound they belong to.
Columns and labels:
human TRPC5 [1] = biological target: T1, human TRPC5 (Homo sapiens, UniProt Q9UL62); experiment: S1P- or LPC-evoked Ca2+ entry in TRPC5 (Tet+) HEK 293 cells; type: cell-based; details: 10 μM compound, fura-2
T1 construct: expressed in transfected cells
T1 sequence (Q9UL62 1-973): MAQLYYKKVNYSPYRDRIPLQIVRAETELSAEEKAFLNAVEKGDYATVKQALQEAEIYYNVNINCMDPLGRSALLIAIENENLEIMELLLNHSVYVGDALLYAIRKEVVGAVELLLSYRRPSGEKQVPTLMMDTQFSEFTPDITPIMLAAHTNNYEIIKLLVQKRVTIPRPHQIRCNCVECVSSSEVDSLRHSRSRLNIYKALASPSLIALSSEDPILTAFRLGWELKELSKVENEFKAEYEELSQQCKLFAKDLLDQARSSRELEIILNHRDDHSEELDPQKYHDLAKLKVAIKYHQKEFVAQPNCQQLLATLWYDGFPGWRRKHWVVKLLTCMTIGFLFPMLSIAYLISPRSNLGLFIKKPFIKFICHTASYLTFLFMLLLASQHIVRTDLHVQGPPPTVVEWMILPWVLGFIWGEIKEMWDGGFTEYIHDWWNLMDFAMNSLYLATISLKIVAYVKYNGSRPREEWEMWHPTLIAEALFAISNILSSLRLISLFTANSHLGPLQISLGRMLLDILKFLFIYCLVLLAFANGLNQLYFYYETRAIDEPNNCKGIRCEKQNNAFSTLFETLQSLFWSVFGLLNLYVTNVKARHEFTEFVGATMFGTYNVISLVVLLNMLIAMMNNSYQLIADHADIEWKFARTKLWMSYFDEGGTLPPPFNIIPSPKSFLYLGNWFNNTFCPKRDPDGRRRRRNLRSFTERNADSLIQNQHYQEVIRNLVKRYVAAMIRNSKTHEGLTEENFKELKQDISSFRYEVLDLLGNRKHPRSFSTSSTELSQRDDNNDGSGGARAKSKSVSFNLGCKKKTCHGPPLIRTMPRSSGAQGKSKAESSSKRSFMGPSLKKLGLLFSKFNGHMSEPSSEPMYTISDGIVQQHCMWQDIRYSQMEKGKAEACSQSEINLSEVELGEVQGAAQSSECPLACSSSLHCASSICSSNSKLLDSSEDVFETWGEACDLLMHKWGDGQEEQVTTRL

TRPC4 = biological target: T2, TRPC4 (Homo sapiens, UniProt Q9UBN4); experiment: Outside-out patch recordings from TRPC4 Tet+ cells stimulated by (-)-Englerin A; type: cell-based; details: 5 μM compound, 100 nM (-)-Englerin A
T2 construct: expressed in transfected cells
T2 sequence (Q9UBN4 1-893 isoform Q9UBN4-2): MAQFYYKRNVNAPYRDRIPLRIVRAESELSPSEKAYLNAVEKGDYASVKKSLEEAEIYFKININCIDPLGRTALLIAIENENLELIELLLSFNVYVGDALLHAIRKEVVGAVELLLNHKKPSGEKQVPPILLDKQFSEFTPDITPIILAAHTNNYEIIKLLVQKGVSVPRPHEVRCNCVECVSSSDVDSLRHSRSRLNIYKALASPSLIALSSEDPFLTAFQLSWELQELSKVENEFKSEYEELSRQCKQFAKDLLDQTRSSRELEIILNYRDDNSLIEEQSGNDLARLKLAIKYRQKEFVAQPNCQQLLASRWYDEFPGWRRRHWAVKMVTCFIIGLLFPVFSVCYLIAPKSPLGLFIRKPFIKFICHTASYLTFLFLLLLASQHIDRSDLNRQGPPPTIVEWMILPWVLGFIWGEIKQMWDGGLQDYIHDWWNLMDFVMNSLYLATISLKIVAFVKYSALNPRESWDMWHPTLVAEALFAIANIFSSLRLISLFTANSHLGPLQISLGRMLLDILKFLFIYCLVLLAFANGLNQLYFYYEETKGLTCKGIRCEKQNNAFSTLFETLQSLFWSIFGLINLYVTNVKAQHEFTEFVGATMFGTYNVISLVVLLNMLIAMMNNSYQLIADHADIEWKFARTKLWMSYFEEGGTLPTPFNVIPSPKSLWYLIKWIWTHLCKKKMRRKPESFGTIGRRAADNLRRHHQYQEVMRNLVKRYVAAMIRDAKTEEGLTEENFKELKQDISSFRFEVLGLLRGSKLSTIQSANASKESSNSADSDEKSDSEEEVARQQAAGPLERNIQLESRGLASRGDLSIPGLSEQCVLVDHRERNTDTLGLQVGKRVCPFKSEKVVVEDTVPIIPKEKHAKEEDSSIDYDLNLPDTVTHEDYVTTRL

TRPC3 channels = biological target: T3, TRPC3 channels (Homo sapiens, UniProt Q13507); experiment: OAG-evoked Ca2+ entry in cells overexpressing TRPC3; type: cell-based; details: 10 μM compound, 50 μM OAG, fura-2
T3 construct: expressed in transfected cells
T3 sequence (Q13507 74-921 limits assumed): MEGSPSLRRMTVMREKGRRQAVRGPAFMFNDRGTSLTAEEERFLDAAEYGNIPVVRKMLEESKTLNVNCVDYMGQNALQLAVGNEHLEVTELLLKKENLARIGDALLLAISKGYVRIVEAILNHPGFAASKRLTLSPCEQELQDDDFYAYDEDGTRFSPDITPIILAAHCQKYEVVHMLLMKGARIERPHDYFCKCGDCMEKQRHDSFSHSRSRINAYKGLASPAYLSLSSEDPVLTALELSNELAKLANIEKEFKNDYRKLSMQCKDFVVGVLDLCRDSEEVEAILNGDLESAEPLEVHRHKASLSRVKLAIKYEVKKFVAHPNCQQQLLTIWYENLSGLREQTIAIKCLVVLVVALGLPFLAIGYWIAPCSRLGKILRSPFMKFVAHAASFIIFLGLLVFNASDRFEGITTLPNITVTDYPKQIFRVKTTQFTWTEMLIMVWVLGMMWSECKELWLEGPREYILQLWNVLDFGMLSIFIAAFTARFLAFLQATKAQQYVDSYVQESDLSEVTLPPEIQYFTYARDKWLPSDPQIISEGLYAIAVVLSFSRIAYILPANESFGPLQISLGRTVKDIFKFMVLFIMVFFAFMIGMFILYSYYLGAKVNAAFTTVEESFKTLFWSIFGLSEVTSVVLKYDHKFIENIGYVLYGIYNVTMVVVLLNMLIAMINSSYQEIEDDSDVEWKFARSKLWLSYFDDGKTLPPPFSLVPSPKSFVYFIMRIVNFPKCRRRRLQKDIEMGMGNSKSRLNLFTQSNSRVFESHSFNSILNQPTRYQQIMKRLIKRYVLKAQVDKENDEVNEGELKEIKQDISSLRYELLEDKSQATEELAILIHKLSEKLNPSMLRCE

[2] = biological target: T4, TRPC1-TRPC5 heteromeric channels (Homo sapiens, UniProt P48995+Q9UL62); experiment: Whole-cell recordings of TRPC1-TRPC5 heteromeric channels stimulated by (-)-Englerin A; type: cell-based; details: 5 μM compound, 100 nM (-)-Englerin A
T4 construct: expressed in transfected cells; host or cells: HEK 293-MSR, transient, Lipofectamine 2000

TRPV4 channels [3] = biological target: T5, TRPV4 channels (Homo sapiens, UniProt Q9HBA0); experiment: 4alphaPDD-evoked Ca2+ entry in CHO K1 cells expressing TRPV4; type: cell-based; details: 10 μM compound, 1 μM 4αPDD, fluo-4
T5 construct: expressed in transfected cells

[4] = tested on: endogenous Ca2+ entry mechanism; experiment: Ca2+ responses in control non-induced (Tet-) HEK cells with extracellular Ca2+; type: cell-based, human; details: 10 μM compound
[5] = tested on: endogenous Ca2+ release signal; experiment: Endogenous Ca2+ release in non-induced (Tet-) TRPC5 HEK cells; type: cell-based, human; details: 10 μM compound, no extracellular Ca2+
TRPM2 channels = biological target: T6, TRPM2 channels (Homo sapiens, UniProt O94759); experiment: H2O2-evoked Ca2+ entry in cells overexpressing TRPM2; type: cell-based; details: 10 μM compound, 1 mM H2O2, fura-2
T6 construct: expressed in transfected cells

human TRPC5 [6] = biological target: T1, human TRPC5; experiment: Outside-out patch recordings from TRPC5 Tet+ cells; type: cell-based; details: outside-out patch, (-)-Englerin A-activated TRPC5
human TRPC5 [7] = biological target: T1, human TRPC5; experiment: Gd3+-evoked Ca2+ entry in TRPC5-expressing (Tet+) HEK 293 cells; type: cell-based
[8] = tested on: GABA-evoked ionic currents; design: method as in Goutman et al., 2003; details: ref Goutman et al., 2003; cited from earlier work
human TRPC5 [9] = biological target: T1, human TRPC5; experiment: Whole-cell patch clamp of TRPC5-expressing (Tet+) HEK 293 cells; type: cell-based; details: 10 μM compound
TRPV4 channels [10] = tested on: TRPV4 channels; design: method as in Ma et al., 2012; details: ref Ma et al., 2012; cited from earlier work
3T3-L1 cells = details: ref Harmon and Harp, 2001; cited from earlier work
TRPC5 = tested on: TRPC5; design: method as in Wong et al., 2010; details: ref Wong et al., 2010; cited from earlier work

T5 sequence (Q9HBA0 whole entry): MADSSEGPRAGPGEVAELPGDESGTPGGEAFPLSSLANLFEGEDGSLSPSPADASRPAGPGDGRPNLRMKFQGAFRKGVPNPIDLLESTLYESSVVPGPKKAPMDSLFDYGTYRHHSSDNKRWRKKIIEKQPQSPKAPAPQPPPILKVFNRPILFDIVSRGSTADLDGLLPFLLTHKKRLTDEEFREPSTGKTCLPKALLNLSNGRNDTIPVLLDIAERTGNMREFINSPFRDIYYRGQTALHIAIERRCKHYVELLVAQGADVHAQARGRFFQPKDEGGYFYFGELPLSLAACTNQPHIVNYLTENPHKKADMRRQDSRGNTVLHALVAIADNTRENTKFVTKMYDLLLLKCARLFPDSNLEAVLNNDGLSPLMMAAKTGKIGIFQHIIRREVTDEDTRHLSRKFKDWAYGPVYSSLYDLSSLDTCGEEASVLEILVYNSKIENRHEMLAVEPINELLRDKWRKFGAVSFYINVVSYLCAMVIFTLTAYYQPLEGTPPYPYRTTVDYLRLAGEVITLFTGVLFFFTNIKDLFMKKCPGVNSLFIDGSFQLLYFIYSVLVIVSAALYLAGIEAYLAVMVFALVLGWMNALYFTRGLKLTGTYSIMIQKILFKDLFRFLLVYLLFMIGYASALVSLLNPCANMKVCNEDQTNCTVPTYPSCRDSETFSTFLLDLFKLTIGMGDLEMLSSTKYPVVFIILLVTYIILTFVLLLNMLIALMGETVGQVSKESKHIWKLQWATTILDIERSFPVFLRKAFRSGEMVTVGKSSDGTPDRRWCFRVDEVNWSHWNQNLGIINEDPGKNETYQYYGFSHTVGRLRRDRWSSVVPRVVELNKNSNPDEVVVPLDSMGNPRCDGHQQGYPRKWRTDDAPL
T4 sequence (P48995 whole entry, one chain of several): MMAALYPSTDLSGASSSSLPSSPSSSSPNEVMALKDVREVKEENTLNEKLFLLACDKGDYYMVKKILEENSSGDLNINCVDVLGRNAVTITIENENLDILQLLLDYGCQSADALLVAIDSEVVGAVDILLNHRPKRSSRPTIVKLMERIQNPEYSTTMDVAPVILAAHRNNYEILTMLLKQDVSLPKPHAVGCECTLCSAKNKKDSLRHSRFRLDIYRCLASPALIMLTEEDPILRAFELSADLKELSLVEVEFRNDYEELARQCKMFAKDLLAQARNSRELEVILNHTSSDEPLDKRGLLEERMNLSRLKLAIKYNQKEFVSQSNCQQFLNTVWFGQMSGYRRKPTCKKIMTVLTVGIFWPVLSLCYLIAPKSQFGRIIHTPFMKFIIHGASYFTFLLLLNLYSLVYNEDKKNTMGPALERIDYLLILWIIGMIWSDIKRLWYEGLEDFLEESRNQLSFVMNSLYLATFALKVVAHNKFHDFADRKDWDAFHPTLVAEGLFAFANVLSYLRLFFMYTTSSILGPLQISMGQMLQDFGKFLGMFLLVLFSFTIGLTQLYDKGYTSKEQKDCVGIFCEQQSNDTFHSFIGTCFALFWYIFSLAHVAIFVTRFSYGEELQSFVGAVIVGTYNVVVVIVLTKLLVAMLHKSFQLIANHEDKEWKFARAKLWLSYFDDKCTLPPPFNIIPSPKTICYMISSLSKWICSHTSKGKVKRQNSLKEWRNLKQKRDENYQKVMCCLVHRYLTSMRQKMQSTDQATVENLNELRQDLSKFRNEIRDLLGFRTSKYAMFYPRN
T6 sequence (O94759 whole entry): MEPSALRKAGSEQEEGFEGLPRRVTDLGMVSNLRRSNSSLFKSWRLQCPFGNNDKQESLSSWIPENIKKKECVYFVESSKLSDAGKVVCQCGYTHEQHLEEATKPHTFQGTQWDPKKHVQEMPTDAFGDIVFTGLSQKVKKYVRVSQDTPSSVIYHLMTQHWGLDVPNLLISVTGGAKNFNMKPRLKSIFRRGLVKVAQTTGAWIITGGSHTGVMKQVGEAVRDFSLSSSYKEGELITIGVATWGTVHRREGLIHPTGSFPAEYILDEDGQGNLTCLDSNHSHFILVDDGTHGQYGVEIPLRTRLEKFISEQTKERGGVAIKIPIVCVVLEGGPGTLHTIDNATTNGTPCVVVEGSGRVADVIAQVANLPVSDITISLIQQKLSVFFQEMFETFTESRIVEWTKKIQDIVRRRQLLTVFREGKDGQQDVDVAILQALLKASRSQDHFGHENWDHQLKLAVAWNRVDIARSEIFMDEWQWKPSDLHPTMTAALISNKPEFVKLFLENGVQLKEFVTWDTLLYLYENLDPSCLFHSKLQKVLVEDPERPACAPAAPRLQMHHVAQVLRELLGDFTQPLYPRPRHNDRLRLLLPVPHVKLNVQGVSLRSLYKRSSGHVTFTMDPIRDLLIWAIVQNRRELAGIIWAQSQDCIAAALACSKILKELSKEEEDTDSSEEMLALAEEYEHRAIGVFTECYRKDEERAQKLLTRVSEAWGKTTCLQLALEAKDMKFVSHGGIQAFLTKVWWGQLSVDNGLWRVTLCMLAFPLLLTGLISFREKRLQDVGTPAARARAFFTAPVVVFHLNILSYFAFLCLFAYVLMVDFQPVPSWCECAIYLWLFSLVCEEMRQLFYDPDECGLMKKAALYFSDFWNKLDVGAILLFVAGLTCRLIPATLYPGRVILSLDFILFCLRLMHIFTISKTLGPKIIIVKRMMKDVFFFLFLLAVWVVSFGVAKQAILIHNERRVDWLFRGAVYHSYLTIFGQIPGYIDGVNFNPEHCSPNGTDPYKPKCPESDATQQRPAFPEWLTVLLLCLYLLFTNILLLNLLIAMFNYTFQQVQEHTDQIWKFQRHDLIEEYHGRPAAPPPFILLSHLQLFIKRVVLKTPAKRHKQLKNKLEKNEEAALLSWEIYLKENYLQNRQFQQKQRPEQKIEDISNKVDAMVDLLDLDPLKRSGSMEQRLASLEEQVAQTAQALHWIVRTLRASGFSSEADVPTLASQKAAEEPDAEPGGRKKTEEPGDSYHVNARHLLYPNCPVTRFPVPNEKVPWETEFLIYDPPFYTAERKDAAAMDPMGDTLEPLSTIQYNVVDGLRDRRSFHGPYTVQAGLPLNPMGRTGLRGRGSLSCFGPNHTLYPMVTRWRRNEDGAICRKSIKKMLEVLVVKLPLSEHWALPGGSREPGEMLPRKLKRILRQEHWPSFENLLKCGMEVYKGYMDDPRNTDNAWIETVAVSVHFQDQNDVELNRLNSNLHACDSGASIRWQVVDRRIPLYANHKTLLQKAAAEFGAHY

effect on S1P-evoked Ca2+ entry (human TRPC5 [1]; 5 μM S1P): stimulated rather than inhibited
effect on LPC-evoked Ca2+ entry (human TRPC5 [1]; 10 μM LPC): enhanced
average inhibition of TRPC4 current (TRPC4): ~ 80%
effect on Ca2+ entry through TRPC3 channels (TRPC3 channels): did not reach statistical significance
inhibition of TRPC1-TRPC5 heteromeric channel current [2]: ~ 20%
effect on Ca2+ entry through TRPV4 channels (TRPV4 channels [3]): significant stimulatory effect
effect on TRPM2 channels (TRPM2 channels): no effect
recovery on washout (human TRPC5 [6]): fast recovery on washout
pIC50 (human TRPC5 [7]; TRPC5 (Tet+) HEK 293, Gd3+, fura-2, read-out: IC50, inhibition of Gd3+-evoked Ca2+ entry): 6.55
SMILES: O=c1c(O)c(-c2ccccc2Br)oc2cc(O)cc(O)c12 [AM12, 3,5,7‐trihydroxy‐2‐(2‐bromophenyl)‐4H‐chromen‐4‐one]
effect on S1P and LPC responses in Tet- cells [4]: no effects
effect on ATP response in the presence of extracellular Ca2+ ([4]; 100 μM ATP): enhanced
effect on Ca2+ release evoked by thapsigargin ([5]; 3 μM thapsigargin): no effect
effect on Ca2+ release evoked by ATP ([5]; 100 μM ATP): no effect

effect on TRPC5-mediated whole-cell current (no other activator) (human TRPC5 [9]): stimulate
effect on Gd3+-evoked Ca2+ entry (natural flavonoid screen) (human TRPC5 [7]; 10 μM, 50 μM Gd3+, XRhod-1): stimulatory effect
SMILES: O=c1cc(-c2ccc(O)cc2)oc2cc(O)cc(O)c12 [Apigenin]
effect on GABA-evoked ionic currents [8]: inhibited
effect on TRPV4 channels (TRPV4 channels [10]): stimulating

SMILES: O=c1c(-c2ccc(O)cc2)coc2cc(O)cc(O)c12 [genistein]
effect on 3T3-L1 cell proliferation and differentiation (3T3-L1 cells): inhibited proliferation and subsequent differentiation
effect on TRPC5 (TRPC5): stimulated
